The record followed here is patent EP0403158A2, “Imidazolyl-alkenoic acids” (SMITHKLINE BEECHAM CORPORATION, priority 1989, dated 1990).

The test system of assay [1] is mean arterial pressure in conscious rats made renin dependent hypertensive. Kind of assay: Antihypertensive activity in renal artery ligated (renin dependent hypertensive) conscious rats. It is filed as in vivo. Conditions: Rattus norvegicus, iv, seven to eight days following ligation, read-out: IC30 (dose of compound needed to reduce mean arterial pressure by 30 mm Hg). The protocol: (§1) Angiotensin II antagonist activity of the compounds of Formulas (I) and (IA) is assessed by in vitro and in vivo methods. In vitro antagonist activity is determined by the ability of the compounds to compete with ¹²⁵I-angiotensin II for binding to vascular angiotensin II receptors and by their ability to antagonize the contractile response to angiotensin II in the isolated rabbit aorta. In vivo activity is evaluated by the efficacy of the compounds to inhibit the pressor response to exogenous angiotensin II in conscious rats and to lower blood pressure in a rat model of renin dependent hypertension.
The antihypertensive activity of the compounds is measured by their ability to reduce mean arterial pressure in conscious rats made renin dependent hypertensive by ligation of the left renal artery (Cangiano et al., J. Pharmacol. Exp. Ther. 208:310, 1979). Renal artery ligated rats are prepared with indwelling catheters as described above. Seven to eight days following renal artery ligation, the time at which plasma renin levels are highest, the conscious rats are placed in restrainers and mean arterial pressure is continuously recorded prior to and following the administration of the compounds intravenously or orally. The dose of compound needed to reduce mean arterial pressure by 30 mm Hg (IC₃₀) is used as an estimate of potency. […]

For assay [2], the system named is pressor response to exogenous angiotensin II. Kind of assay: Inhibition of pressor response to angiotensin II in conscious rats. In kind it is in vivo. Conditions: Rattus norvegicus, i.v., change in mean arterial pressure after intravenous 250 mg/kg angiotensin II, read-out: IC50 (dose of compound needed to produce 50% inhibition of the control response to angiotensin II). The protocol: as §1
Rats are prepared with indwelling femoral arterial and venous catheters and a stomach tube (Gellai et al., Kidney Int. 15:419, 1979). Two to three days following surgery the rats are placed in a restrainer and blood pressure is continuously monitored from the arterial catheter with a pressure transducer and recorded on a polygraph. The change in mean arterial pressure in response to intravenous injections of […] angiotensin II is compared at various time points prior to and following the administration of the compounds intravenously or orally at doses of 3 to 300 mg/kg. The dose of compound needed to produce 50% inhibition of the control response to angiotensin II (IC₅₀) is used to estimate the potency of the compounds. […]

As for `CCCCc1ncc(/C=C(\Cc2ccccc2)C(=O)O)n1Cc1ccccc1Cl` [(E)-3-[2-n-butyl-1-{(2-chlorophenyl)methyl}-1H-imidazol-5-yl]-2-benzyl-2-propenoic acid], the ED (30 mm Hg) in assay [1] stood at 10 mg/kg. Also, the ED50 in assay [2] was 14 mg/kg.
